The melting point is the temperature of the solid-liquid transition.

`Cc1cccc(NC(=O)NCC(=O)N(CC(=O)N(CC(=O)OC(C)(C)C)c2ccccc2)c2ccccc2)c1` displayed a melting point of 76 to 80 °C. Regarding `CCCOCCOC(=O)C1=C(C)NC(C)=C(/C=C/S(=O)(=O)NC(C)C)C1c1cccc([N+](=O)[O-])c1` (stereo not drawn), the melting point lay in the range of 152 to 154 °C.

`CCOC(=O)c1c(O)c2ccc(F)cc2c(=O)n1CC(C)(C)C` had a melting point of 92 to 93 °C. The figure for `CC(=O)Nc1ccc(-n2ccnc2S(=O)Cc2ccccc2N2CCOCC2)nc1` (stereo not drawn) is 207 to 209 °C; for `Cc1ccc(N2C(=O)N(CC(=O)O)C(=O)C23CCCCC3)cc1` it is 206 °C; for `CCCCCCCCCCOc1ccc(CC(=O)OC)cc1` it is 42 to 44 °C.

The compound `CC(C)N1C(=O)c2ccccc2N(C(=O)C(C)(C)C)S1(=O)=O` came in with a melting point of 97.5 to 99.5 °C. The compound `COc1ccc(C2=NN(SC(C)C)C(=O)C2(SC(C)C)SC(C)C)cc1` gave a melting point of 52 to 54 °C.

`CC1CCC2(C)C(=CCC3C4CC(Br)C(=O)C4(C)CCC32)C1` (stereo not drawn) gave a melting point of 186 to 188 °C. For `CCOC(=O)c1c(C)cc2c(c1C)c(=O)n(-c1ccccc1Cl)c(=O)n2C(=O)O` the value was 182 to 183 °C; for `Cc1nc2cc(NS(=O)(=O)c3cc(Cl)ccc3Cl)ccc2o1`, 194 °C; for `CC(C)CC1C(=O)NCCN1Cc1ccccc1` (stereo not drawn), 126 to 127 °C. For `CN1CCCC1=NC(=O)Nc1ccccc1` the value was 140 to 144 °C; for `C[C@H](N[C@@H](CCc1ccccc1)C(=O)O)C(=O)N1C(=O)N(C)C[C@H]1C(=O)O`, 240 °C.

The compound `COCCN1CCc2ccc(Nc3ncc(Cl)c(Nc4ccccc4C(=O)NC4CC4)n3)cc2CC1` had a melting point of 165 to 180 °C. The figure for `NC1=C(N=O)C(=O)N2CCN=C2N1Cc1ccc(F)cc1` is 248 to 250 °C. For `Cc1nc(N2CCN(Cc3ccccc3)C2=O)sc1C(=O)NCc1ccccn1` the value was 149 to 151 °C. For `O=C1CCC(=O)N1Cc1nc2sc3c(c2c(-c2ccc(OCc4ccccc4)cc2)c1Cl)CCNC3`, the melting point lay in the range of 247 to 248 °C.

`Nc1cc(S(=O)(=O)CCO)ccc1Nc1ccc(N)c(S(=O)(=O)O)c1` had a melting point of 254 °C. Turning to `N=c1sc2cc(OC(F)(F)F)ccc2n1CCS(=O)c1ncccn1` (stereo not drawn), the melting point was found to be 120 °C. The figure for `CC#CNC(=O)NC(=NC(=O)NCCCCCCCC)SC` is 123 to 125 °C; for `COC1CC2(C)C(CCC3C4CC=C(C(C)=O)C4(C)CC(=O)C32)CC1O` (stereo not drawn) it is 159 to 163 °C. For the compound `CC(C)(C)OC(=O)N[C@@H](Cc1ccccn1)C(=O)NCC(=O)c1ccc(-c2ccccc2)cc1`, the melting point was in the range of 129 to 132 °C. The figure for `COC1c2c(ccc3cnn(CC(C)N)c23)OCC1O` (stereo not drawn) is 105 to 108 °C; for `Brc1cc(C=Cc2scc3c2OCCO3)ccn1` it is 127 to 129 °C. Compound `C=CC[C@@]1(NC(=O)OC(C)(C)C)C(=O)[C@@H](C(C)C)N(C(=O)OC(C)(C)C)C1=O` returned a melting point of 83 °C. For `COCc1ncccc1CN(CCn1ccc2oc(C)cc2c1=O)Cc1ccc2c(c1)N(C)C(=O)C(C)(C)C(=O)N2C1CC1` the value was 146 to 148 °C. In turn, `CC(/C=C/C(=O)N1CCCc2cc3c(cc21)C(C)(C)CCC3(C)C)=C\C(=O)O` came in with a melting point of 225 to 227 °C. In turn, `CN(C)C(=O)c1cnn2ccccc12` gave a melting point of 86 to 87 °C. For `CCNC(=O)C(C)Oc1ncn(-c2cccc(C(F)(F)F)c2)n1` (stereo not drawn) the value was 135 to 137 °C; for `CC(=O)ON1C(C)(C)CC(OC(=O)CCCCCCCCC(=O)OC2CC(C)(C)N(OC(C)=O)C(C)(C)C2)CC1(C)C`, 81 to 94 °C. For the compound `Cc1cc(C)c(Oc2cccc(C#N)c2C#N)c(C)c1`, the melting point was 151 to 153 °C. The compound `c1cncc(CCCN2CCc3[nH]c4ccccc4c3C2)c1` had a melting point of 223 to 225 °C. For `Cc1cccc(-c2nc3cccnn3c2-c2ccnc(NCC3CCCO3)c2)c1` (stereo not drawn) the value was 137 to 138 °C; for `C#CCOc1ccc(Br)cn1`, 58 to 60 °C; for `COc1ccc(C(=O)c2ccccc2F)c(Cl)c1Cl`, 74 to 77 °C. In the case of `CC(C)c1cc(Cl)nc(C(C)C)c1N`, the melting point is 53 to 56 °C. For `O=C(CBr)c1ccc(O)c(CO)c1` the value was 117 to 119 °C. For `CC1(C)CCC(C)(C)c2cc(-c3cn(-c4ccc(C(=O)O)cc4)c(S)n3)ccc21` the value was 170 to 172 °C; for `Cc1ccc(S(=O)(=O)OCCn2c(=NC(=O)C(F)(F)F)sc3cc(C(F)(F)F)ccc32)cc1`, 163 °C; for `COc1ccc(CCNC(=O)COc2ccc(C[C@H](OC)C(=O)O)cc2)cc1`, 97 to 98 °C. For `C=C(Cl)CSC(=S)Nc1ccc(Cl)cc1C`, the melting point lay in the range of 88 to 90.5 °C. `O=C(Nc1ccc(F)cc1)NC1CC1`: the melting point stood at 205 °C.

As for `CC(=O)Nc1nc2c(c(=O)[nH]1)CCC(O)N2C(C)=O` (stereo not drawn), the melting point lay in the range of 202 to 205 °C.

`COc1cc2c(Nc3cc(OC)c(OC)c(OC)c3)c(C#N)cnc2cc1/C=C/CCO` yielded a melting point of 184 to 185 °C. The figure for `CCOc1ccc(C2=NNC(=O)[C@H]3CCCC[C@@H]23)cc1OCC` (relative stereo) is 156 to 157 °C; for `Cc1c(-c2ccccc2)n(Cc2ccccc2)c2ccc(-c3ccc(OCC#N)cc3)cc12` it is 140 °C. Regarding `Nc1cc(C(=O)Nc2ccncc2)ccc1OCC1CCCCC1`, the melting point lay within 193 to 194 °C. For `COc1ccc(NC(=O)CN2CCN(c3cccc(C(F)(F)F)c3)CC2)c([N+](=O)[O-])c1` the value was 98 to 100 °C; for `Nc1ccc(C(=S)N2CCCCC2)cc1`, 162 to 164 °C; for `CC(O)c1cc2c(s1)C(=O)c1c(C(C)O)csc1C2=O` (stereo not drawn), 218 to 219 °C.

The compound `Cc1nc2c(N)nc3ccccc3c2n1CCOCCS(C)(=O)=O` gave a melting point of 214 to 217 °C. In the case of `COC(=O)c1ccccc1Nc1cccc(C(C)N(O)C(C)=O)c1Cl` (stereo not drawn), the melting point fell in the range of 171 to 172 °C. `COc1ccc2nccc([C@@H]3CN(CCCNS(=O)(=O)c4ccc5c(c4)NC(=O)CS5)C(=O)O3)c2c1`: the melting point lay in the range of 135 to 140 °C. For `CCNC(=O)CCC(=O)c1cnc2c(OC)cccc2c1Nc1ccccc1C` the value was 88.5 to 90 °C; for `Cc1ccc(-c2ccc(C(=O)Nc3ccc4cc(CN5CCCC5)cnc4c3C)cc2)s1`, 220 to 221 °C.

As to `Cc1cnc2c(C#N)cnn2c1-c1cccc(C(F)(F)F)c1`, the melting point lay within 191 to 193 °C. The figure for `CN(C)CC1CCCCN1CC(=O)N1c2ccccc2NC(=O)c2cscc21` (stereo not drawn) is 208 to 209 °C. `O=c1oc(-c2ccccc2)cc(O)c1S(=O)(=O)Cc1ccccc1` yielded a melting point of 152 to 153 °C. The figure for `COc1cncc(OC)c1CCCOc1cccnc1Cc1cccc(Br)c1` is 153 to 165 °C. `O=c1c2ccccc2oc2cc(OCCO)c(Cl)cc12` showed a melting point of 153 to 156 °C. Consider `COc1c(C)cc(C2=C(c3ccc(S(C)(=O)=O)cc3)OC(C)(C)C2=O)cc1C`, for which the melting point fell in the range of 130 to 131 °C.

In turn, `CC1(C)NC2C(=O)N(C(O)C(=O)OCC(Cl)(Cl)Cl)C2S1` (stereo not drawn) gave a melting point of 125 to 127 °C. The figure for `CCNC(=O)CSc1nc(Cl)cc(Nc2cccc(C)c2C)n1` is 191 to 192 °C; for `CCOC(=N)c1cccc(C)c1OC` it is 93 to 96 °C; for `Cc1cn(C(C)C(=O)N(C)C)nc1-c1cccc(Cl)c1` (stereo not drawn) it is 73 to 75 °C.

Compound `CC(C)Cn1c(CCCCNC(=O)Nc2ccccc2)nc2c(N)nc3c(c21)CCCC3` displayed a melting point of 197 to 199 °C.

For the compound `COc1cc(C=CC2=CC(=O)C(C)(C)O2)cc(OC)c1OC`, the melting point was 149 to 150 °C. For `C=CCc1c(O)cc(C)c2ccc(=O)oc12` the value was 177 °C. For `O=C(O)C1Oc2cc(Cl)c(S(=O)(=O)c3cc(Cl)cc(Cl)c3)cc2O1` (stereo not drawn) the value was 166 to 169 °C; for `CN(CCOc1ccc(NC(=O)c2cccc3c(=O)c4ccccc4[nH]c23)cc1)Cc1ccccc1`, 173 °C; for `COc1ccccc1N1CCN(CC(O)COc2ccc(OCc3ccccc3)c3ccccc23)CC1` (stereo not drawn), 143 to 145 °C.

`CC(C)(C)OC(=O)CN(CC(=O)O)CC(=O)OC(C)(C)C` gave a melting point of 76 to 82 °C. For `CC(C)c1cccc(C(C)C)c1NC(=O)CN1CCN(CCSc2nc3ccccc3o2)CC1` the value was 161 to 163 °C; for `COc1cc(C[NH+]([O-])C(=O)C(F)(F)F)ccn1` (stereo not drawn), 176 to 178 °C; for `CC(C)c1nc(C(N)=O)c2n1-c1ccc(Cl)cc1C(c1ccccc1Cl)=NC2`, 328 to 330 °C.

As for `CCCC(=O)NS(=O)(=O)c1ccc(C(=O)/C=C/c2cc(N3CCCC3)c(OC)cc2OC)cc1`, the melting point lay within 193 to 195 °C. `CCN1C(=O)C(C)(C)C(=O)N(C)c2cc(CCN(CCn3ccc4oc(C)cc4c3=O)Cc3cc(C)nn3C)ccc21` returned a melting point of 134 to 140 °C. The figure for `COc1ccc(Cn2c(=O)c3ccccc3n(CCCCCl)c2=O)cc1` is 123 to 124 °C; for `CN1Cc2c(F)ncn2-c2ccccc2C1=O` it is 171 to 172 °C. Consider `Clc1ncnc2cc3c(cc12)OCCO3`, for which the melting point fell in the range of 169 to 174 °C. Consider `CCN(CC)CCOc1ccc2cc3ccc(OCCN(CC)CC)c([N+](=O)[O-])c3nc2c1[N+](=O)[O-]`, for which the melting point lay within 138 to 140 °C. For `CC(C)(C(=O)O)c1ccc(C(O)CCCN2CCC(=C3c4ccccc4CCc4ccccc43)CC2)cc1` (stereo not drawn) the value was 135 to 137 °C; for `CN(O)C(=O)C1CCC(C2CCCCC2)CC1` (stereo not drawn), 89 to 90 °C; for `CN1CCCCc2cc([N+](=O)[O-])ccc21`, 52 to 54 °C.

For the compound `NC(=O)COc1ccc(OCc2ccccc2)cc1OCc1ccccc1`, the melting point was found to be 120 °C. For `C=CCc1c(O)cc(Cl)c2c(-c3ccccc3F)noc12` the value was 211 to 212 °C; for `Cc1nc(NCCSCc2nc[nH]c2C)[nH]c(=O)c1CCc1ccccc1`, 222 to 224 °C.
